Experimental data taken from ChEMBL document CHEMBL1201862, “PubChem BioAssay data set” (2004).
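1) Cells in 96-well plates. 2) Compound, 48 h, 5 concentrations. 3) Linear interpolation between surrounding doses. 4) Unreached endpoint = highest concentration. Abbreviation: GI50, concentration required for 50% inhibition of growth.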 Active and inactive are the calls of the source. Rule as the data show it: active = GI50 up to about 1.1 µM and inactive = higher.

What was measured:
Assay in all cases: NCI tumour cell line growth inhibition, 48 h
[1] = test system: U-251
[2] = test system: COLO 205
[3] = test system: HOP-62
[4] = test system: LOX IMVI
[5] = test system: NCI-H23
[6] = test system: EKVX
[7] = test system: K562
[8] = test system: SW-620
[9] = test system: OVCAR-8
[10] = test system: KM12
[11] = test system: MDA-MB-435
[12] = test system: A549
[13] = test system: Hs-578T
[14] = test system: Malme-3M
[15] = test system: MDA-N
[16] = test system: CAKI-1
[17] = test system: MOLT-4
[18] = test system: MDA-MB-231
[19] = test system: RPMI-8226
[20] = test system: M14
[21] = test system: RXF 393
[22] = test system: MCF7
[23] = test system: HCT-116
[24] = test system: HT-29
[25] = test system: NCI-H522
[26] = test system: SF-295
[27] = test system: UACC-257
[28] = test system: A498
[29] = test system: HL-60
[30] = test system: UO-31
[31] = test system: SF-268
[32] = test system: SK-MEL-28
[33] = test system: DU-145
[34] = test system: BT-549
[35] = test system: ACHN
[36] = test system: CCRF-CEM
[37] = test system: UACC-62
[38] = test system: TK-10
[39] = test system: SF-539
[40] = test system: HOP-92
[41] = test system: SK-MEL-2
[42] = test system: OVCAR-5
[43] = test system: NCI-H226
[44] = test system: PC-3
[45] = test system: SNB-19
[46] = test system: OVCAR-3
[47] = test system: SK-OV-3
[48] = test system: HCC 2998
[49] = test system: SK-MEL-5
[50] = test system: NCI-H460
[51] = test system: SR
[52] = test system: IGROV-1
[53] = test system: OVCAR-4
[54] = test system: SN12C
[55] = test system: 786-0
[56] = test system: T47D
[57] = test system: NCI/ADR-RES
[58] = test system: HCT-15
[59] = test system: SNB-75

Structure (SMILES): CCOC(=O)c1sc2nc(SC)nc3c2c1NC(=O)CN3c1ccc(F)cc1
- GI50 [1]: 43.5 µM (inactive)
- GI50 [2]: 68.9 µM (inactive)
- GI50 [3]: 15.7 µM (inactive)
- GI50 [4]: 38.3 µM (inactive)
- GI50 [5]: 50.6 µM (inactive)
- GI50 [6]: 47.4 µM (inactive)
- GI50 [7]: 77.6 µM (inactive)
- GI50 [8]: 38.5 µM (inactive)
- GI50 [9]: 22.1 µM (inactive)
- GI50 [10]: > 100 µM (inactive)
- GI50 [11]: 32.3 µM (inactive)
- GI50 [12]: 18.6 µM (inactive)
- GI50 [13]: 27.1 µM (inactive)
- GI50 [14]: 48.4 µM (inactive)
- GI50 [15]: 37.9 µM (inactive)
- GI50 [16]: > 100 µM (inactive)
- GI50 [17]: > 100 µM (inactive)
- GI50 [18]: 26.9 µM (inactive)
- GI50 [19]: 65.9 µM (inactive)
- GI50 [20]: 37.9 µM (inactive)
- GI50 [21]: 18.8 µM (inactive)
- GI50 [22]: 87.3 µM (inactive)
- GI50 [23]: 26.4 µM (inactive)
- GI50 [24]: 44.6 µM (inactive)
- GI50 [25]: 71.9 µM (inactive)
- GI50 [26]: 20.1 µM (inactive)
- GI50 [27]: 68.7 µM (inactive)
- GI50 [28]: 47.6 µM (inactive)
- GI50 [29]: 98.6 µM (inactive)
- GI50 [30]: 18 µM (inactive)
- GI50 [31]: 20 µM (inactive)
- GI50 [32]: 8.18 µM (inactive)
- GI50 [33]: 40.4 µM (inactive)
- GI50 [34]: 19.5 µM (inactive)
- GI50 [35]: 21.6 µM (inactive)
- GI50 [36]: 30.1 µM (inactive)
- GI50 [37]: 47 µM (inactive)
- GI50 [38]: 30.7 µM (inactive)
- GI50 [39]: 15.9 µM (inactive)
- GI50 [40]: 31.8 µM (inactive)
- GI50 [41]: 54.3 µM (inactive)
- GI50 [42]: 41.7 µM (inactive)
- GI50 [43]: 41.7 µM (inactive)
- GI50 [44]: 16.6 µM (inactive)
- GI50 [45]: 27.8 µM (inactive)
- GI50 [46]: 26.4 µM (inactive)
- GI50 [47]: 25 µM (inactive)
- GI50 [48]: 34.6 µM (inactive)
- GI50 [49]: 46.3 µM (inactive)
- GI50 [50]: > 100 µM (inactive)
- GI50 [51]: > 100 µM (inactive)
- GI50 [52]: > 100 µM (inactive)
- GI50 [53]: 21.4 µM (inactive)
- GI50 [54]: 24.6 µM (inactive)

Structure (SMILES): OCC1OC(n2nc(-c3ccccc3)nc2-c2cnccn2)C(O)C(O)C1O (stereo unspecified)
- GI50 [1]: > 100 µM (inactive)
- GI50 [2]: > 100 µM (inactive)
- GI50 [3]: > 100 µM (inactive)
- GI50 [4]: > 100 µM (inactive)
- GI50 [5]: > 100 µM (inactive)
- GI50 [55]: > 100 µM (inactive)
- GI50 [7]: > 100 µM (inactive)
- GI50 [8]: > 100 µM (inactive)
- GI50 [9]: > 100 µM (inactive)
- GI50 [10]: > 100 µM (inactive)
- GI50 [11]: > 100 µM (inactive)
- GI50 [12]: > 100 µM (inactive)
- GI50 [15]: > 100 µM (inactive)
- GI50 [17]: > 100 µM (inactive)
- GI50 [18]: > 100 µM (inactive)
- GI50 [19]: > 100 µM (inactive)
- GI50 [20]: > 100 µM (inactive)
- GI50 [22]: > 100 µM (inactive)
- GI50 [23]: > 100 µM (inactive)
- GI50 [24]: > 100 µM (inactive)
- GI50 [25]: > 100 µM (inactive)
- GI50 [26]: > 100 µM (inactive)
- GI50 [27]: > 100 µM (inactive)
- GI50 [29]: > 100 µM (inactive)
- GI50 [30]: > 100 µM (inactive)
- GI50 [32]: > 100 µM (inactive)
- GI50 [33]: > 100 µM (inactive)
- GI50 [34]: > 100 µM (inactive)
- GI50 [36]: > 100 µM (inactive)
- GI50 [37]: > 100 µM (inactive)
- GI50 [39]: > 100 µM (inactive)
- GI50 [40]: > 100 µM (inactive)
- GI50 [42]: > 100 µM (inactive)
- GI50 [44]: > 100 µM (inactive)
- GI50 [45]: > 100 µM (inactive)
- GI50 [56]: > 100 µM (inactive)
- GI50 [46]: > 100 µM (inactive)
- GI50 [47]: > 100 µM (inactive)
- GI50 [48]: > 100 µM (inactive)
- GI50 [57]: > 100 µM (inactive)
- GI50 [58]: > 100 µM
- GI50 [49]: > 100 µM (inactive)
- GI50 [50]: > 100 µM (inactive)
- GI50 [52]: > 100 µM (inactive)
- GI50 [53]: > 100 µM (inactive)
- GI50 [54]: > 100 µM (inactive)
- GI50 [59]: > 100 µM (inactive)
